Experimental data: patent US20240140933A1, “OXOINDOLINE COMPOUND FOR THE TREATMENT OF INFLAMMATORY DISEASES OR CANCER” (Hoffmann-La Roche Inc., priority 2021, published 2024)

Molecular target: PDHK1 (Homo sapiens (Human), UniProt Q15118)
Test: PDHK1 enzymatic assay (AlphaScreen, phosphorylation of PDHE1 S293)
Format: biochemical
Conditions: 1 nM PDHK1, 25 nM PDHE1, 20 μM ATP, 30° C. for 45 minutes; for IC50: read-out: Enzymatic IC50 against PDHK1 (converted)
Excerpt: Pyruvate dehydrogenase complex (PDHc) is an enzyme that catalyzes the reaction of pyruvate and a lipoamide to give the acetylated dihydrolipoamide and carbon dioxide. PDHc has three subunits E1, E2 and E3. E1 has 3 serine phosphorylation sites S293, S232, S300. If E1 was phosphorylated, PDH will be inactivated. PDHK can phosphorylate PDH protein (also named PDHE1) in PDH complex (PDC) to inactivate it.

Chain of PDHK1 (Q15118 29-436): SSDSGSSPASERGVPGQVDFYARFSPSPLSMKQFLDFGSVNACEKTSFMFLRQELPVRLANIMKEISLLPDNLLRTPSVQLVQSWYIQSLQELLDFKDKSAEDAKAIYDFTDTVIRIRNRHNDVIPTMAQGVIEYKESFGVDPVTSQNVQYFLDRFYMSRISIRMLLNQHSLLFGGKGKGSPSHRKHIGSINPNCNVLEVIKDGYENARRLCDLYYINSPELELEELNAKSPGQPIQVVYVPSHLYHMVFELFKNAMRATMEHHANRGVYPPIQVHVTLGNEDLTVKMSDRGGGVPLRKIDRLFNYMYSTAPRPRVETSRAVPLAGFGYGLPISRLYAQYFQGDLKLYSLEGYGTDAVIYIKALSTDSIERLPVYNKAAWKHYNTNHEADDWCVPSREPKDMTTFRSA

| SMILES | Enzymatic IC50 against PDHK1 [µg/mL] | IC50 [nM] |
| --- | --- | --- |
| CCNc1cc(F)cc2c1NC(=O)C2(C)N1CCCC(NC(=O)C2CC3(C2)CN(C#N)C3)C1 (stereo in doubt) [Example 37, 2-cyano-N-[(3R)-1-[7-(ethylamino)-5-fluoro-3-methyl-2-oxo-indolin-3-yl]-3-piperidyl]-2-azaspiro[3.3]heptane-6-carboxamide] | 0.039 |  |
| CCNc1cc(F)cc2c1NC(=O)[C@@]2(C)N1CCC[C@@H](Oc2ccc(C(=O)O)c(Cl)c2)C1 [Example 1B, 2-chloro-4-[[(3R)-1-[(3S)-7-(ethylamino)-5-fluoro-3-methyl-2-oxo-indolin-3-yl]-3-piperidyl]oxy]benzoic acid] |  | 15.2 |
| CCNc1cc(F)cc2c1NC(=O)C2(C)N1CCC[C@@H](Oc2ccc(O)c(C=O)c2)C1 (stereo partly drawn) [Example 2, 5-[[(3R)-1-[7-(ethylamino)-5-fluoro-3-methyl-2-oxo-indolin-3-yl]-3-piperidyl]oxy]-2-hydroxy-benzaldehyde] | 0.015 |  |
| CCNc1cc(F)cc2c1NC(=O)[C@]2(C)N1CCC[C@@H](Oc2ccc(S(=O)(=O)F)cc2)C1 [Example 3A, 4-[[(3R)-1-[(3R)-7-(ethylamino)-5-fluoro-3-methyl-2-oxo-indolin-3-yl]-3-piperidyl]oxy]benzenesulfonyl fluoride] | 0.036 |  |
| CCNc1cc(F)cc2c1NC(=O)[C@@]2(C)N1CCC[C@@H](Oc2ccc(S(=O)(=O)F)c(OC)c2)C1 [Example 4B, 4-[[(3R)-1-[(3S)-7-(ethylamino)-5-fluoro-3-methyl-2-oxo-indolin-3-yl]-3-piperidyl]oxy]-2-methoxy-benzenesulfonyl fluoride] |  | 109 |
| CCNc1cc(F)cc2c1NC(=O)C2(C)N1CCC[C@@H](Cc2ccc(C(=O)O)cc2)C1 (stereo partly drawn) [Example 5, 4-[[(3S)-1-[7-(ethylamino)-5-fluoro-3-methyl-2-oxo-indolin-3-yl]-3-piperidyl]methyl]benzoic acid] | 0.046 |  |
| CCNc1cc(F)cc2c1NC(=O)C2(C)N1CCC[C@@H](Cc2ccc(C(N)=O)cc2)C1 (stereo partly drawn) [Example 6, 4-[[(3S)-1-[7-(ethylamino)-5-fluoro-3-methyl-2-oxo-indolin-3-yl]-3-piperidyl]methyl]benzamide] | 0.143 |  |
| CCNc1cc(F)cc2c1NC(=O)C2(C)N1CCC[C@@H](Cc2ccc(C#N)cc2)C1 (stereo partly drawn) [Example 7, 4-[[(3S)-1-[7-(ethylamino)-5-fluoro-3-methyl-2-oxo-indolin-3-yl]-3-piperidyl]methyl]benzonitrile] |  | 379 |
| CCNc1cc(F)cc2c1NC(=O)C2(C)N1CCC[C@@H](Nc2ccc(C#N)cc2)C1 (stereo partly drawn) [Example 8, 4-[[(3R)-1-[7-(ethylamino)-5-fluoro-3-methyl-2-oxo-indolin-3-yl]-3-piperidyl]amino]benzonitrile] | 0.022 |  |
| CCNc1cc(F)cc2c1NC(=O)C2(C)N1CCC[C@@H](Nc2ccc(C#N)c(O)c2)C1 (stereo partly drawn) [Example 9, 4-[[(3R)-1-[7-(ethylamino)-5-fluoro-3-methyl-2-oxo-indolin-3-yl]-3-piperidyl]amino]-2-hydroxy-benzonitrile] | 0.015 |  |
| CCNc1cc(F)cc2c1NC(=O)C2(C)N1CCC[C@H](Nc2ccc(C(=O)O)nc2)C1 (stereo partly drawn) [Example 10, 5-[[(3S)-1-[7-(ethylamino)-5-fluoro-3-methyl-2-oxo-indolin-3-yl]-3-piperidyl]amino]pyridine-2-carboxylic acid] | 0.059 |  |
| CCNc1cc(F)cc2c1NC(=O)C2(C)N1CCC[C@@H](Nc2ccc(C(=O)O)nc2)C1 (stereo partly drawn) [Example 11, 5-[[(3R)-1-[7-(ethylamino)-5-fluoro-3-methyl-2-oxo-indolin-3-yl]-3-piperidyl]amino]pyridine-2-carboxylic acid] | 0.020 |  |
| CCNc1cc(F)cc2c1NC(=O)C2(C)N1CCC[C@@H](Nc2ccc(C(N)=O)nc2)C1 (stereo partly drawn) [Example 12, 5-[[(3R)-1-[7-(ethylamino)-5-fluoro-3-methyl-2-oxo-indolin-3-yl]-3-piperidyl]amino]pyridine-2-carboxamide] | 0.062 |  |
| CCNc1cc(F)cc2c1NC(=O)C2(C)N1CCC[C@@H](Nc2ccc(C#N)cn2)C1 (stereo partly drawn) [Example 14, 6-[[(3R)-1-[7-(ethylamino)-5-fluoro-3-methyl-2-oxo-indolin-3-yl]-3-piperidyl]amino]pyridine-3-carbonitrile] | 0.007 |  |
| CCNc1cc(F)cc2c1NC(=O)C2(C)N1CCC[C@@H](Nc2cnc(C#N)cn2)C1 (stereo partly drawn) [Example 15, 5-[[(3R)-1-[7-(ethylamino)-5-fluoro-3-methyl-2-oxo-indolin-3-yl]-3-piperidyl]amino]pyrazine-2-carbonitrile] | 0.060 |  |
| CCNc1cc(F)cc2c1NC(=O)C2(C)N1CCC[C@@H](Nc2ccc(C#N)nn2)C1 (stereo partly drawn) [Example 16, 6-[[(3R)-1-[7-(ethylamino)-5-fluoro-3-methyl-2-oxo-indolin-3-yl]-3-piperidyl]amino]pyridazine-3-carbonitrile] | 0.047 |  |

| SMILES | Enzymatic IC50 against PDHK1 [µg/mL] | IC50 [nM] |
| --- | --- | --- |
| CCNc1cc(F)cc2c1NC(=O)C2(C)N1CCC[C@@H](Nc2cnc(C#N)nc2)C1 (stereo partly drawn) [Example 17, 5-[[(3R)-1-[7-(ethylamino)-5-fluoro-3-methyl-2-oxo-indolin-3-yl]-3-piperidyl]amino]pyrimidine-2-carbonitrile] | 0.012 |  |
| CCNc1cc(F)cc2c1NC(=O)C2(C)N1CCC[C@@H](Nc2ccc(CO)nc2)C1 (stereo partly drawn) [Example 18, 7-(ethylamino)-5-fluoro-3-[(3R)-3-[[6-(hydroxymethyl)-3-pyridyl]amino]-1-piperidyl]-3-methyl-indolin-2-one] | 0.059 |  |
| CCNc1cc(F)cc2c1NC(=O)C2(C)N1CCC[C@@H](Nc2ccc(C(=O)CO)cc2)C1 (stereo partly drawn) [Example 19, 7-(ethylamino)-5-fluoro-3-[(3R)-3-[4-(2-hydroxyacetyl)anilino]-1-piperidyl]-3-methyl-indolin-2-one] | 0.016 |  |
| CCNc1cc(F)cc2c1NC(=O)C2(C)N1CCC[C@@H](Nc2ccc(S(C)(=O)=O)nc2)C1 (stereo partly drawn) [Example 20, 7-(ethylamino)-5-fluoro-3-methyl-3-[(3R)-3-[(6-methylsulfonyl-3-pyridyl)amino]-1-piperidyl]indolin-2-one] | 0.038 |  |
| CCNc1cc(F)cc2c1NC(=O)C2(C)N1CCC[C@@H](Nc2ccc(O)nc2)C1 (stereo partly drawn) [Example 21, 7-(ethylamino)-5-fluoro-3-[(3R)-3-[(6-hydroxy-3-pyridyl)amino]-1-piperidyl]-3-methyl-indolin-2-one] | 0.037 |  |
| CCNc1cc(F)cc2c1NC(=O)C2(C)N1CCC[C@@H](Nc2cnc(C#N)c(Cl)c2)C1 (stereo partly drawn) [Example 22, 3-chloro-5-[[(3R)-1-[7-(ethylamino)-5-fluoro-3-methyl-2-oxo-indolin-3-yl]-3-piperidyl]amino]pyridine-2-carbonitrile] | 0.024 |  |
| CCNc1cc(F)cc2c1NC(=O)C2(C)N1CCC[C@@](C)(Nc2ccc(C#N)nc2)C1 (stereo partly drawn) [Example 23, 5-[[(3R)-1-[7-(ethylamino)-5-fluoro-3-methyl-2-oxo-indolin-3-yl]-3-methyl-3-piperidyl]amino]pyridine-2-carbonitrile] | 0.049 |  |
| CCNc1cc(F)cc2c1NC(=O)C2(C)N1CCC[C@@H](N(C)c2ccc(C(N)=O)nc2)C1 (stereo partly drawn) [Example 24, 5-[[(3R)-1-[7-(ethylamino)-5-fluoro-3-methyl-2-oxo-indolin-3-yl]-3-piperidyl]-methyl-amino]pyridine-2-carboxamide] | 0.016 |  |
| CCNc1cc(F)cc2c1NC(=O)C2(CC)N1CCC[C@@H](N(C(C)=O)c2ccc(C#N)nc2)C1 (stereo partly drawn) [Example 25, N-(6-cyano-3-pyridyl)-N-[(3R)-1-[3-ethyl-7-(ethylamino)-5-fluoro-2-oxo-indolin-3-yl]-3-piperidyl]acetamide] | 0.142 |  |
| CCNc1cc(F)cc2c1NC(=O)C2(CC)N1CCC[C@@H](N(C(N)=O)c2ccc(C#N)nc2)C1 (stereo partly drawn) [Example 26, 1-(6-cyano-3-pyridyl)-1-[(3R)-1-[3-ethyl-7-(ethylamino)-5-fluoro-2-oxo-indolin-3-yl]-3-piperidyl]urea] | 0.067 |  |
| CCNc1cc(F)cc2c1NC(=O)C2(C)N1CCC[C@@H](Nc2cccc(S(=O)(=O)F)c2)C1 (stereo partly drawn) [Example 27, 3-[[(3R)-1-[7-(ethylamino)-5-fluoro-3-methyl-2-oxo-indolin-3-yl]-3-piperidyl]amino]benzenesulfonyl fluoride] | 0.086 |  |
| CCNc1cc(F)cc2c1NC(=O)C2(C)N1CCC[C@@H](Nc2ccc(S(=O)(=O)F)c(OC)c2)C1 (stereo partly drawn) [Example 28, 4-[[(3R)-1-[7-(ethylamino)-5-fluoro-3-methyl-2-oxo-indolin-3-yl]-3-piperidyl]amino]-2-methoxy-benzenesulfonyl fluoride] | 0.032 |  |
| CCNc1cc(F)cc2c1NC(=O)C2(C)N1CCC[C@@H](Nc2ccc(S(=O)(=O)F)cn2)C1 (stereo partly drawn) [Example 29, 6-[[(3R)-1-[7-(ethylamino)-5-fluoro-3-methyl-2-oxo-indolin-3-yl]-3-piperidyl]amino]pyridine-3-sulfonyl fluoride] | 0.035 |  |
| CCNc1cc(F)cc2c1NC(=O)C2(C)N1CCC[C@@H](Nc2cc(C)c(S(=O)(=O)F)cn2)C1 (stereo partly drawn) [Example 30, 4-methyl-6-[[(3R)-1-[7-(ethylamino)-5-fluoro-3-methyl-2-oxo-indolin-3-yl]-3-piperidyl]amino]pyridine-3-sulfonyl fluoride] | 0.065 |  |
| CCNc1cc(F)cc2c1NC(=O)C2(C)N1CCC[C@@H](Nc2cccc(OS(=O)(=O)F)c2)C1 (stereo partly drawn) [Example 31, 7-(ethylamino)-5-fluoro-3-methyl-2-oxo-3-[(3R)-3-(3-fluorosulfonyloxyanilino)-1-piperidyl]indoline] | 0.197 |  |
